Patent publication US9682929B2, “Metalloprotease inhibitors, methods for producing same, and therapeutics uses thereof” (Centre National de la Recherche Scientifique-CNRS, priority 2013, dated 2017)

How the values were obtained:
[1] = molecular target: T1, metalloelastase MMP-12 (Homo sapiens, UniProt P39900); experiment: Test for enzymatic inhibition of MMP-12 (colorimetric, thiopeptide substrate/DTNB); assay type: biochemical; details: purified human enzyme; for IC50: 1 h preincubation, 150 μM substrate, read-out: IC50 MMP12; for Ki: read-out: Ki MMP12
T1 construct: purchased Anaspec, USA
Experimental: (§1) Protocols of the Tests for Enzymatic Inhibition of MMP-9 and MMP-12
(§2) The enzymatic tests for screening compounds 1 to 7 were carried out in solution on two purified human enzymes: the gelatinase MMP-9 (Anaspec, USA) and the metalloelastase MMP-12 (Anaspec, USA).
(§3) The principle is based on the cleavage, by the MMP-9 or MMP-12 enzyme, of a chromogenic substrate: the thiopeptide (Ac-Pro-Leu-Gly-[2-mercapto-4-methylpentanoyl]-Leu-Gly-OC2H5) (Enzo Life Sciences, USA).
(§4) The hydrolysis of this thiopeptide produces a sulfhydryl group which reacts with Ellman's reagent: 5,5′-dithiobis(2-nitrobenzoic acid) (DTNB) to form 2-nitro-5-thiobenzoic acid (TNB), which is detected by its absorbance at 412 nm
(§5) The tests are carried out in the buffer 50 mM Hepes, 10 mM CaCl2, 0.5% Brij35, 1 mM DTNB, pH 7.0 containing the purified MMP-9 and MMP-12 enzymes diluted to the final concentration of 0.8 μg/ml.
(§6) After preincubation of the enzymes (1 h at ambient temperature in the dark) with or without the products tested (minimum of four doses serially diluted one-in-ten), the cleavage reactions are initiated by adding 150 μM (final concentration) of substrate in a total final volume of 100 μl (96-well plate format).
(§7) The plates containing the reactions are read in a microplate reader (Multiskan Ascent, ThermoElectron, France) in order to continuously measure the absorbance and to record values every […] for 3 h. Each condition is carried out in triplicate.
(§8) The concentration which inhibits 50% of the reaction (IC50) is determined from curves representing the absorbance (optical density) of the final reaction product (TNB) as a function of the doses tested. Each experiment is carried out at least twice.

[2] = molecular target: T2, gelatinase MMP-9 (Homo sapiens, UniProt P14780); experiment: Test for enzymatic inhibition of MMP-9 (colorimetric, thiopeptide substrate/DTNB); assay type: biochemical; details: purified human enzyme; for IC50: 1 h preincubation, 150 μM substrate, read-out: IC50 MMP9; for Ki: read-out: Ki MMP9
T2 construct: purchased Anaspec, USA
Experimental: as §1, §2, §3, §4, §5, §6, §7, §8

T2 sequence (P14780 94-707): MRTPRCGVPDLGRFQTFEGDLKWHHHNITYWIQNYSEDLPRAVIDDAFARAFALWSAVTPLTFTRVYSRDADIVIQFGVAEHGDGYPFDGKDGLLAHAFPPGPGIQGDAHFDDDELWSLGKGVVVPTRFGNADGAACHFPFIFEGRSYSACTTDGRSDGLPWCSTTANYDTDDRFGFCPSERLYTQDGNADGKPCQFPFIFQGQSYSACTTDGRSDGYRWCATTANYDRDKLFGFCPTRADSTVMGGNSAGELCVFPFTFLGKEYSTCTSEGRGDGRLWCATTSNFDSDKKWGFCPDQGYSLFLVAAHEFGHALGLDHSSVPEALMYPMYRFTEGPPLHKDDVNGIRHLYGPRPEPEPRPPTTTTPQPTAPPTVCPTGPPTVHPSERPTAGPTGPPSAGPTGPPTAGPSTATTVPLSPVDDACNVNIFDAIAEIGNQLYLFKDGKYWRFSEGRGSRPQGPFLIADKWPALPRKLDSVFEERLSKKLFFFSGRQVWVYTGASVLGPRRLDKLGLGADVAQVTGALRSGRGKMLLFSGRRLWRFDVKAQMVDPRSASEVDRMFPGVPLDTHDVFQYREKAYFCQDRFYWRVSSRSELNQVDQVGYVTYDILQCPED
T1 sequence (P39900 106-470): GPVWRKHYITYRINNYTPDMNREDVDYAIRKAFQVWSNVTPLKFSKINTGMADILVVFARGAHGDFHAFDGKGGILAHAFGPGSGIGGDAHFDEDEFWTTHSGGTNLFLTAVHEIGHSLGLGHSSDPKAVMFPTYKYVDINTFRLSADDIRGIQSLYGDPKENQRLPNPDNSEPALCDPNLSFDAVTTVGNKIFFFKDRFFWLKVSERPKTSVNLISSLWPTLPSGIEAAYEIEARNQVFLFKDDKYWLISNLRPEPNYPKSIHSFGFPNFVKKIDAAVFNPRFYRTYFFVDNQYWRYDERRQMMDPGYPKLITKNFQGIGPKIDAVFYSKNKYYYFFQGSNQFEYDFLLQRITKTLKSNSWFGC

Row | Compound | IC50 [1] [µM] | Ki [1] [µM] | IC50 [2] [µM] | Ki [2] [µM]
1 | C=C[C@H](C(=O)N[C@@H](Cc1ccccc1)C(=O)NC1CCCCC1)[C@@H](C)O [Compound 1, (S)—N—((S)-1-(cyclohexylamino)-1-oxo-3-phenylpropan-2-yl)-2-((R)-1-hydroxyethyl)but-3-enamide] | 19.5 | 9.95 | 18.1 | 8.95
2 | C=C[C@H](C(=O)N[C@@H](Cc1ccccc1)C(=O)NC1CCCCC1)[C@H](O)c1ccc(-c2ccccc2)cc1 [Compound 2, (S)-2-((S)-biphenyl-4-yl(hydroxy)methyl)-N—((S)-1-(cyclohexylamino)-1-oxo-3-phenylpropan-2-yl)but-3-enamide] | 20 | 10.2 | 126 | 62.2
3 | C=C[C@H](C(=O)N[C@@H](Cc1ccccc1)C(=O)NC1CCCCC1)[C@H](O)c1cc(OCc2ccc(OC)cc2)n(-c2ccccc2)n1 [Compound 3, (S)—N—((S)-1-(cyclohexylamino)-1-oxo-3-phenylpropan-2-yl)-2-((S)-hydroxy(5-(4-methoxybenzyloxy)-1-phenyl-1H-pyrazol-3-yl)methyl)but-3-enamide] | 7.23 | 3.68 | 5 | 2.47
4 | C=C[C@H](C(=O)N[C@@H](Cc1ccccc1)C(=O)O)[C@H](O)c1cc(OCc2ccc(OC)cc2)n(-c2ccccc2)n1 [Compound 4, (S)-2-((S)-2-((S)-hydroxy-(5-(4-methoxybenzyloxy)-1-phenyl-1H-pyrazol-3-yl)methyl)but-3-enamido)-3-phenylpropanoic acid] | 20.2 | 10.3 | 259 | 128

Results, then the molecule that gave them:

Row | IC50 [1] [µM] | Ki [1] [µM] | IC50 [2] [µM] | Ki [2] [µM] | Compound
5 | 22.3 | 11.4 | 19.8 | 9.78 | C=C[C@H](C(=O)N[C@@H](Cc1ccccc1)C(=O)NO)[C@H](O)c1cc(OCc2ccc(OC)cc2)n(-c2ccccc2)n1 [Compound 5, (S)-2-((S)-hydroxy-(5-(4-methoxybenzyloxy)-1-phenyl-1H-pyrazol-3-yl)methyl)-N—((S)-1-(hydroxyamino)-1-oxo-3-phenylpropan-2-yl)but-3-enamide]
6 | 6.3 | 3.21 | 13.1 | 6.47 | C=C[C@H](C(=O)N[C@@H](CC(=O)O)C(=O)O)[C@H](O)c1cc(OCc2ccc(OC)cc2)n(-c2ccccc2)n1 [Compound 6, (S)-2-((S)-2-((S)-hydroxy-(5-(4-methoxybenzyloxy)-1-phenyl-1H-pyrazol-3-yl)methyl)but-3-enamido)succinic acid]
7 | 78.3 | 39.9 | 330 | 163 | C=C[C@H](C(=O)N[C@@H](CCSC)C(=O)O)[C@H](O)CCCC [Compound 7, (S)-2-((2S,3R)-3-hydroxy-2-vinylheptanamido)-4-(methylthio)butanoic acid]
